Measurements: patent publication US20220193255A1, “CHLORHEXIDINE SYSTEMS AND METHODS FOR OBTAINING SAME” (priority 2019, published 2022)

Columns and labels:
[1] = Chlorhexidine gluconate remaining after gamma irradiation, measured by HPLC; type: physicochemical; details: for Chlorhexidine gluconate after irradiation, % / Preservation, %: initial CHD 0.075 wt %
Method: An aqueous solution of silver nitrate salt (as the source of silver) was prepared so that the final concentration of silver in the solution was 60 ppm. A 20 wt % aqueous solution of chlorhexidine gluconate (CHD) was added to make the resulting concentration of 0.05 wt %. Finally, isopropanol was added to achieve the concentration of 4 wt % in the resulting solution. The sample was a transparent colorless liquid. Thermo Scientific Evolution 220 Spectrophotometer was used to monitor the absorbance spectra of the sample, which is shown in FIG. 1 as the dashed line. The 30 ml sample solution was then subjected to irradiation by gamma rays at 7 kGy. The resulting solution was a transparent brownish liquid showing a clear peak of absorption at the wavelength 412.7 nm (solid line in FIG. 1), which corresponds to the presence of silver nanoparticles. The sample of the irradiated solution was presented for imaging to Transmission Electron Microscope (JEOL JEM 2100F) and an example of the image is shown in FIG. 2, which confirms formation of silver nanoparticles in the irradiated solution. The nanoparticles have quasi-spherical form and a visible conjugated layer around their surface. […]
Two identical samples were prepared as described in Example 1, each of them being colorless transparent aqueous solutions containing 60 ppm of silver in the form of silver nitrate, 0.5 wt % of polyvinyl alcohol, 4 wt % of isopropanol and 0.05 wt % of chlorhexidine gluconate. The samples were subjected to different doses of gamma irradiation—the first sample to 7 kGy and the second to 3 kGy. After irradiation the color of the samples changed to the transparent brown.
To evaluate any influence of the amount and the nature of the stabilizing agent, three different samples were prepared as described in Example 1. Each of them contained 30 ppm of silver in the form of silver nitrate and 0.05 wt % of chlorhexidine gluconate in an aqueous solution. The first sample additionally contained 0.5 wt % of polyvinyl alcohol (PVA) and 10 wt % of isopropanol, the second—2 wt % of polyvinyl alcohol and 10 wt % of isopropanol and the third sample additionally contained 1 wt % of polyvinylpyrrolidone (PVP) and 4 wt % of isopropanol. All three samples represented clear colorless liquids before irradiation. The irradiated at 10 kGy samples changed their color to the transparent brown color of different intensities. The concentration of chlorhexidine gluconate was measured using HPLC and determined as 0.015 wt % in the first and the second sample and 0.016 wt % in the third sample. The UV-vis spectra of all three samples show formation of silver nanoparticles, with the only difference that in the sample which contained PVP the nanoparticles are larger than in those which contained PVA (FIG. 5; the “shoulder” of the small dashed line indicates presence of nanoparticles larger than 100 nm).
To evaluate any difference caused by the initial amount of chlorhexidine gluconate, two samples were prepared as in Example 1, but one of them contained 0.05 wt % of chlorhexidine gluconate and another sample contained 0.075 wt % of chlorhexidine gluconate before irradiation. Both samples were irradiated at 7 kGy, by the action of which the nanoparticles of silver were formed in both samples.
To evaluate the influence of the amount of silver present in the form of a silver salt as a precursor for nanoparticles formation, three different samples were prepared as described in Example 1. Each of them contained 0.075 wt % of chlorhexidine gluconate, 0.5 wt % of polyvinyl alcohol and 4 wt % of isopropanol in an aqueous solution. Silver nitrate was added to each of the samples so that the concentration of silver in the samples was 15 ppm, 30 ppm and 60 ppm. All the samples were transparent colorless solutions. They were subjected to gamma irradiation at 7 kGy and the concentration of chlorhexidine gluconate was measured consequently using HPLC. […]

[2] = as above; type: physicochemical
[3] = Example 1: Ag 60 ppm (silver nitrate), initial CHD 0.05 wt %, isopropanol 4 wt %, gamma 7 kGy
[4] = Example 2: Ag 60 ppm, PVA 0.5 wt %, isopropanol 4 wt %, initial CHD 0.05 wt %, gamma 7 kGy
[5] = Example 4, first sample: initial CHD 0.05 wt %, silver nitrate, gamma 7 kGy
[6] = Example 4, second sample: initial CHD 0.075 wt %, silver nitrate, gamma 7 kGy
[7] = Example 5: Ag 15 ppm, PVA 0.5 wt %, isopropanol 4 wt %, gamma 7 kGy
[8] = Example 5: Ag 30 ppm, PVA 0.5 wt %, isopropanol 4 wt %, gamma 7 kGy
[9] = Example 5: Ag 60 ppm, PVA 0.5 wt %, isopropanol 4 wt %, gamma 7 kGy
[10] = Example 9: Au 30 ppm (chloroauric acid), isopropanol 4 wt %, initial CHD 0.05 wt %, gamma 3 kGy

## [H]/N=C(\N/C(=N/[H])NCCCCCCNC(=N)NC(=N)Nc1ccc(Cl)cc1)Nc1ccc(Cl)cc1 [chlorhexidine gluconate]
[1]; [3]
  concentration of chlorhexidine gluconate in the irradiated solution: 0.0295 wt %
  rate of preservation compared to the initial level before irradiation: 59%
[1]; Example 2: Ag 60 ppm, PVA 0.5 wt %, isopropanol 4 wt %, initial CHD 0.05 wt %, gamma 3 kGy
  rate of preservation: 79%
[1]; [4]
  chlorhexidine gluconate after irradiation: 0.0294 wt %
  rate of preservation: 58.8%
[1]; Example 3, first sample: Ag 30 ppm, initial CHD 0.05 wt %, PVA 0.5 wt %, isopropanol 10 wt %, gamma 10 kGy
  concentration of chlorhexidine gluconate after irradiation: 0.015 wt %
[1]; Example 3, second sample: Ag 30 ppm, initial CHD 0.05 wt %, PVA 2 wt %, isopropanol 10 wt %, gamma 10 kGy
  concentration of chlorhexidine gluconate after irradiation: 0.015 wt %
[1]; Example 3, third sample: Ag 30 ppm, initial CHD 0.05 wt %, PVP 1 wt %, isopropanol 4 wt %, gamma 10 kGy
  concentration of chlorhexidine gluconate after irradiation: 0.016 wt %
[1]; [5]
  concentration of chlorhexidine gluconate after irradiation: 0.0294 wt %
  preservation rate: 58.8%
[1]; [6]
  concentration of chlorhexidine gluconate after irradiation: 0.052 wt %
  preservation rate: 69.3%
[1]; [7]
  Chlorhexidine gluconate after irradiation, %: 0.043%
  Preservation, %: 57.33%
[1]; [8]
  Chlorhexidine gluconate after irradiation, %: 0.049%
  Preservation, %: 65.33%
[1]; [9]
  Chlorhexidine gluconate after irradiation, %: 0.052%
  Preservation, %: 69.33%
[1]; [10]
  preservation: 51.6%
[2]; Example 8 (comparative): gold nanoparticles made chemically with ascorbic acid, CHD 0.05 wt % added afterwards, gamma 7 kGy
  presence of chlorhexidine in the irradiated sample: not detected
[2]; [10]
  chlorhexidine gluconate detected after irradiation: 0.0258 wt %
